Measured values taken from publication PMC11181322, “Copper(II) Complexes with Isomeric Morpholine-Substituted 2-Formylpyridine Thiosemicarbazone Hybrids as Potential Anticancer Drugs Inhibiting Both Ribonucleotide Reductase and Tubulin Polymerization: The Morpholine Position Matters” (Journal of Medicinal Chemistry, 2024).

Assays:
MES-SA cells [1] = test: Fluorescent protein-based cytotoxicity assay, MES-SA; format: cell-based, human; conditions: Homo sapiens, MES-SA; 120 h; ± SD; n = 3
Description: (§1) The cytotoxic activity of proligands H2L^3–H2L^6 and their copper(II) complexes 3–6 was investigated in the MES-SA (human uterine sarcoma) and in its MDR counterpart (MES-SA/Dx5) cell lines by a fluorescent protein-based assay.[73]
(§2) The human uterine sarcoma cell lines MES-SA and the doxorubicin selected MES-SA-Dx5 were obtained from ATCC (MES-SA: No. CRL-1976, MES-SA/Dx5: No. CRL-1977) and were used for the intracellular ROS generation studies. For cytotoxicity, we used the fluorescent cell lines MES-SA mCherry and MES-SA/Dx5 eGFP, which were created by lentiviral transductions of the respective genes.[73] The phenotype of the resistant cells was maintained by 500 nM doxorubicin treatment a week before use and was verified using cytotoxicity assays. Cells were cultivated at 37 °C, 5% CO2 in Dulbecco’s modified Eagle's Medium (DMEM, Sigma-Aldrich), supplemented with 10% fetal bovine serum, 5 mM glutamine, and 50 unit/mL penicillin and streptomycin (Thermo Fisher).
(§3) MES-SA mCherry and MES-SA/Dx5 eGFP cell suspensions were seeded after trypsinization at 2500 cells/20 μL density on 384-well plates, containing 20 μL of completed medium. The next day, serial dilution of the compounds was prepared and added in an additional 20 μL, with or without 0.4 μM Tariquidar. Liquid handling steps were performed by a Hamilton StarLet robot. […] The mean and standard deviation of the pIC50 values were calculated and converted to IC50 values.

mR2 RNR protein = molecular target: T1, mR2 RNR protein (Mus musculus, UniProt P11157); set-up: method as in PMID 21955844; conditions: in 3 min ref 76; cited from earlier work
T1 construct: made in house
T1 sequence (P11157 1-390): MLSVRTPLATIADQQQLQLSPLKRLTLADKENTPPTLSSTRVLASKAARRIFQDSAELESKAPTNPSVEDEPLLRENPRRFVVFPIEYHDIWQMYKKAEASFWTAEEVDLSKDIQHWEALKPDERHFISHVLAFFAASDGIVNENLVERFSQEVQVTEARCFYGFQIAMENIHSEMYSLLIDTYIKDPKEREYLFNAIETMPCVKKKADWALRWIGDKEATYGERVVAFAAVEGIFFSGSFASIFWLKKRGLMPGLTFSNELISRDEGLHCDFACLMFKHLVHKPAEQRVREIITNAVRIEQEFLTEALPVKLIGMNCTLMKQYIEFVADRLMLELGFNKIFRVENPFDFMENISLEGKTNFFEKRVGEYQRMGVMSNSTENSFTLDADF

MES-SA/Dx5 cells [2] = test: Intracellular ROS generation, DCF-DA assay, MES-SA/Dx5; format: cell-based, human; conditions: 25 μM, 4 h treatment
Description: (§4) ROS accumulation was evaluated in both the MES-SA and MES-SA/Dx5 cell lines by using 2′,7′-dichlorodihydrofluorescein diacetate (H2DCF-DA) as a probe. This compound enters the cells by passive diffusion, and after oxidation, it is converted to the highly fluorescent 2′,7′-dichlorofluorescein (DCF), enabling the estimation of intracellular ROS levels. ROS generation was measured after a 4 h treatment with 25 μM H2L^6 or 6; tert-butylhydroperoxide (TBHP, 25 μM) was used as a positive control.
(§5) Figure 6 Intracellular ROS generation measured by the DCF-DA assay in MES-SA (filled bars) and MES-SA/Dx5 (lattice bars) cells, after a 4 h treatment with the indicated compounds at 25 μM: H2L^6 (gray), complex 6 (yellow), Triapine (green), and TBHP (brown). Values indicate fold change relative to the fluorescence of the cells treated with fluorescent probe alone (orange bars), following normalization to the initial fluorescence at the beginning of the incubation. Paired t test to the medium control was calculated; […]; **P < 0.01. Values were calculated from at least three independent experiments.
(§6) The human uterine sarcoma cell lines MES-SA and the doxorubicin selected MES-SA-Dx5 were obtained from ATCC (MES-SA: No. CRL-1976, MES-SA/Dx5: No. CRL-1977) and were used for the intracellular ROS generation studies. […]

[3] = set-up: method as in PMID 32336116; conditions: copper(II) complexes of the named TSCs, measured under similar conditions ref 67; cited from earlier work
MES-SA cells [4] = test: Intracellular ROS generation, DCF-DA assay, MES-SA; format: cell-based, human; conditions: 25 μM, 4 h treatment
Description: as §4, §5, §6

MES-SA/Dx5 cells [5] = test: Fluorescent protein-based cytotoxicity assay, MES-SA/Dx5; format: cell-based, human
Description: as §1, §2, §3

MES-SA cells [6] = test: dNTP pools in MES-SA cell extracts; format: cell-based, human; conditions: 24 h
Description: RNR reduces NDPs to their corresponding deoxy derivatives (dNDPs), which are further converted into dNTPs.[77] Therefore, we investigated the effect of the most toxic proligand H2L^6 and its copper(II) complex 6 on cellular dNTP levels, using Triapine as a control. […] Triapine also elicits a dATP pool decrease while increasing the pools of the three other dNTP species. Decreasing the dATP pool to zero can give rise to the observed cytotoxic effect upon treatment with Triapine. Complex 6 seems to affect dNTP pools by a more complex mechanism, which is nevertheless consistent with R2 inhibition.[79]
Figure 8 Measurement of dNTP pools in MES-SA cell extracts following a 24 h treatment with proligand H2L^6, complex 6, or Triapine at the indicated concentrations. Three independent experiments were performed; error bars represent standard error; stars indicate significant changes compared to the respective control (Ctrl) at p < 0.05.
After a 24 h incubation with or without drugs, MES-SA cells were washed twice with PBS and trypsinized for 5 min. […] The pellet containing dNTPs was redissolved in 50 μL of RNase-free water and stored at −20 °C. dNTP-containing samples were measured by a nucleotide incorporation-based fluorescent method.[97] We used a long synthetic oligonucleotide (197 nt) as a template, which contains a dNTP-detection site, the sole complementary base to that of the dNTP to be quantified directly adjacent to the annealed primer. […] In addition to the limiting amount of dNTP to be quantified, the polymerization reaction mix contained the other three dNTPs in large excess. The double-stranded DNA product is detected by the EvaGreen Dye. The 2X master mix for the DNA synthesis reaction contained the following: 0.275 μM primer (Merck KGaA, Darmstadt, Germany), 0.25 μM template (IDT, Coralville, Iowa, USA), 50 μM dNTP mix (excluding the dNTP to be measured in the given experiment to limit its source to the sample), and 1.25 μM EvaGreen (Biotium). […] Fluorescence amplitude data were extracted from the Bio-Rad CFX Maestro Software and analyzed using Excel and Origin. […]

NC(=S)NN=Cc1ncccc1N [Triapine, 3-aminopyridine-2-carboxaldehyde thiosemicarbazone, reference compound]
IC50 (MES-SA cells [1]): 520 ± 100 nM | mR2 Y• reduced (mR2 RNR protein): 100% | Intracellular ROS generation (MES-SA/Dx5 cells [2]): failed to induce ROS | kobs, reduction by GSH [3]: 0.10 min^–1 | Intracellular ROS generation (MES-SA cells [4]): failed to induce ROS | IC50 (MES-SA/Dx5 cells [5]; Homo sapiens, MES-SA/Dx5, 120 h, ± SD, n = 3): 2800 ± 500 nM | SR, selectivity ratio IC50 (MES-SA)/IC50 (MES-SA/Dx5) (MES-SA/Dx5 cells [5]; in the absence of TQ): 0.18 | dATP pool (MES-SA cells [6]): decrease | pools of the three other dNTP species (MES-SA cells [6]): increasing
